US20240299328A1, “COMPOSITIONS COMPRISING 15-HEPE AND METHODS OF TREATING AND/OR PREVENTING HEMATOLOGIC DISORDERS AND RELATED DISEASES” (Afimmune Limited, priority 2023, published 2024)
Like-named read-outs stand apart in the source and are kept apart here.

What was measured:
[1] = test system: α-SMA, TIMP-1, TGF-β and Collagen Type 1 mRNA; assay: UUO study: quantitative RT-PCR of kidney; assay type: in vivo; conditions: UUO mice kidney, normalized to 36B4, Day 14, mean ± SD
Procedure: Quantitative RT-PCR: Total ribonucleic acid (RNA) was extracted from kidney samples using RNAiso. One μg of RNA was reverse-transcribed using a reaction mixture containing […] (mM) of magnesium chloride (MgCl2), 40 U RNase inhibitor, 0.5 mM dNTP, 6.28 µM random hexamer, 5× first strand buffer, 10 mM dithiothreitol and 200 U MMLV-RT in a final volume of 20 μL. The reaction was carried out for 1 hour at 37° C., followed by 5 minutes at 99° C. Real-time PCR was performed using real-time PCR DICE and TB Green™ Premix Ex Taq™ II. To calculate the relative […] (mRNA) expression level, the expression of each gene (e.g., α-SMA, TIMP-1, TGF-β and Collagen Type 1) was normalized to that of reference gene 36B4 (gene symbol: Rplp0). Information regarding the PCR-primer sets and the plate layout are described in Tables 1 and 2.

BDL-operated mice = assay type: in vivo
Procedure: BDL Surgery: On Day 0 of the study, BDL surgery was performed under pentobarbital anesthesia. The mouse's hair was first shaved, the abdominal cavity cut open, and the common bile duct was ligated twice with 7-0 surgical silk. The mouse's peritoneum and the skin were closed with sutures, and the mice were transferred to a clean cage (e.g., resting cage) until recovered from anesthesia. Sham operated mice had their common bile duct exposed but not ligated.
Animals: Pathogen-free 6 weeks of age male C57BL/6J mice were obtained. The animals were maintained in a specific-pathogen free (SPF) facility under controlled conditions of temperature (e.g., 23±2° C.), humidity (e.g., 45±10%), lighting (e.g., 12-hour artificial light and dark cycles; light from 8:00 to 20:00) and air exchange. A high pressure was maintained in the experimental room to prevent contamination of the facility. The animals were housed in TPX cages with a maximum of 4 mice per cage. Sterilized Paper-Clean was used for bedding and replaced once a week. Sterilized solid normal diet was provided ad libitum, being placed in a metal lid on the top of the cage. Pure water was also provided ad libitum from a water bottle equipped with a rubber stopper and a sipper tube. Water bottles were replaced once a week, cleaned, and sterilized in an autoclave and reused. Mice were identified by ear punch and each cage was labeled with a specific identification code.
Animal Monitoring and Sacrifice: The viability, clinical signs and behavior for the mice were monitored daily. Individual body weight was measured daily before treatment during the treatment period. […] The animals were sacrificed at Day 14 after BDL surgery by exsanguination through direct cardiac puncture under isoflurane anesthesia.

[2] = test system: TGF-β signaling in HepG2 cells; assay: TGF-β-induced EMT protein expression and type II TGF-β receptor in HepG2 cells; assay type: cell-based, human; conditions: liver cell lines (HepG2, LX2)
Procedure: The effects of 15-HEPE on TGF-β-induced signaling and cellular responses were determined. To test the effect of 15-HEPE on TGF-β-induced signaling, the activities of 15-HEPE to regulate TGF-β-stimulated Smad2 phosphorylation and nuclear translocation, both of which are key signaling events leading to TGF-β-induced cellular responses, were tested. One important biological activity of TGF-β is transcriptional activation of genes responsible for epithelial-mesenchymal transition (EMT), which is a crucial event in wound healing, tissue fibrosis, and cancer progression. The effect of 15-HEPE on TGFβ-induced epithelial mesenchymal transition related proteins (such as fibronectin, PAI-1, and N-cadherin etc.) expression in HepG2 and LXR cells were assessed. HepG2 cells (human hepatoma cell line) were treated in increasing doses of 15-HEPE stage II in DMEM containing 0.1% of FBS for 1 hour and continually stimulated with or without 200 picomolar (pM) of TGF-β for 48 hours. […] HepG2 cells (human hepatoma cell line) were treated in increasing doses of 15-HEPE stage II in DMEM containing 0.1% of FBS for 1 hour and continually stimulated with or without 200 picomolar (pM) of TGF-β for 48 hours. The two panels shown in FIG. 18A are two separate experiments run under the same experimental conditions.

[3] = test system: humanized sickle cell (SS) mice exposed to H/R stress; assay: SCD (SS) mice exposed to H/R stress: lung, kidney and liver histopathology; assay type: in vivo; parameters: key to Lung thrombi / Kidney thrombi / Liver thrombi: 0: no thrombi; +: presence of thrombi per field at the magnification ×250; conditions: 1000 mg/Kg/d for 6 weeks
Procedure: Lung, kidney and liver histological analysis: Paraffin-embedded tissue blocks were cut into 2-3 μm sections and mounted on adhesion microscope glass slides for Hematoxylin-Eosin (H&E), and Perls' staining for iron content. The analysis was performed on four different fields at a magnification 200×. Tissue pathological analysis, inflammatory cell infiltrate, the presence of thrombi and iron deposition were carried out by blinded pathologists as previously described.
Score for inflammatory cell infiltrate. Quantification of inflammatory cell infiltrates was expressed as the mean of cells per field at magnification of X250, as resulting by the analysis of at least 10 different fields on each hematoxylin-eosin-stained whole lung section. Data are expressed as means±SEM; * p<0.05 compared to normoxia.
Thrombi: 0: no thrombi; +: presence of thrombi per field at the magnification ×250.
Score for inflammatory cell infiltrate. Quantification of inflammatory cell infiltration in renal cortex of kidney was determined in hematoxylin-eosin-stained sections using a 0 to 4 scale based on the percentage of cell infiltrates occupied area in each filed. 0 (no sign of infiltration); 1 (1-10% of the area with cell infiltration); 2 (11-25%); 3 (26-50%); 4 […]. The mean of 15 randomly selected field were analyzed at magnification ×400. Data are expressed as means±SEM; * p<0.05 compared to normoxia; ºp<0.05 compared to vehicle. Thrombi: 0: no thrombi; +: presence of thrombi presence of thrombi per field at the magnification ×250.
Score for inflammatory cell infiltrate. Quantification of inflammatory cell infiltrates was expressed as the mean of cells per field at magnification of ×250, as resulting by the analysis of at least 10 different fields on each hematoxylin-eosin-stained whole liver section. Data are expressed as means±SEM; * p<0.05 compared to normoxia.
Thrombi: 0: no thrombi; +: presence of thrombi presence of thrombi per field at the magnification ×250.
Statistical analysis: Non-parametric Pairwise Wilcoxon Rank Sum Tests was used.

[4] = 50 mg/kg PO QD Day 0-13, Day 14, mean ± SD
[5] = 250 mg/kg PO QD Day 0-13, Day 14, mean ± SD
[6] = DS102 50, 250, 500 mg/kg groups vs Vehicle group

CC/C=C\C[C@H](O)/C=C/C=C\C/C=C\C/C=C\CCCC(=O)OCC [DS102, 15(S)-hydroxy-(5Z,8Z,11Z,13E,17Z)-eicosapentaenoic acid ethyl ester]
Alpha-SMA mRNA expression level ([1]; 50 mg/kg PO QD Day 0-13): 3.74 ± 0.81
Collagen Type 1 mRNA expression level ([1]; 50 mg/kg PO QD Day 0-13): 11.80 ± 1.78
TGF-β mRNA expression level ([1]; 50 mg/kg PO QD Day 0-13): 4.31 ± 0.69
TIMP-1 mRNA expression level ([1]; 50 mg/kg PO QD Day 0-13): 138.30 ± 30.39
Alpha-SMA mRNA expression level ([1]; 500 mg/kg PO QD Day 0-13): 5.54 ± 1.54
Collagen Type 1 mRNA expression level ([1]; 500 mg/kg PO QD Day 0-13): 14.09 ± 2.88
TGF-β mRNA expression level ([1]; 500 mg/kg PO QD Day 0-13): 5.37 ± 0.76
TIMP-1 mRNA expression level ([1]; 500 mg/kg PO QD Day 0-13): 124.80 ± 28.60
Body Weight (BDL-operated mice; [4]): 17.4 ± 2.9 g
Liver Weight (BDL-operated mice; [4]): 1392 ± 328 mg
Body Weight (BDL-operated mice; [5]): 17.0 ± 2.4 g
Liver Weight (BDL-operated mice; [5]): 1513 ± 182 mg
Body Weight (BDL-operated mice; 500 mg/kg PO QD Day 0-13, Day 14, mean ± SD): 16.4 ± 1.6 g
mean body weight at any day during the study period (BDL-operated mice; [6]): no significant changes
mean body weight on the day of sacrifice (BDL-operated mice; [6]): no significant differences
mice found dead before reaching Day 14 (BDL-operated mice; in the DS102 low, middle and high groups (50, 250, 500 mg/kg), Vehicle three out of 15): seven out of 15
TGF-β signaling [2]: directly inhibit
Kidney thrombi ([3]; n = 4): 0
Liver thrombi ([3]; n = 4): 0
Lung thrombi ([3]; n = 4): 0
liver iron accumulation (Perls' staining) ([3]; vs vehicle): significant reduction
thrombi formation in liver ([3]; vs vehicle): significant reduction
